Test results published in patent US20220175675A1, “ENCAPSULATING MOLECULES IN FAT GLOBULES” (The Regents of the University of California, priority 2019, published 2022).

Assays:
[1] = Loading of vitamin D3 in bovine milk fat globules; assay type: physicochemical; settings: for EE %, 1% v/v ethanol / EE %, 10% v/v ethanol / LY, 1% v/v ethanol / LY, 10% v/v ethanol: Bovine MFGs, 30 minutes
Protocol: Raw milk was diluted with Milli-Q water at 9:1 water to milk. Cream was separated from diluted milk via centrifugation at 3,000×g for 5 min. Cream was collected and reconstituted in water at 4% w/v concentration. The mixture was then further centrifuged at 3,000×g for 5 min. The cream was then collected and reconstituted to desired weight/volume in water (20% w/v in water).
Encapsulation of VD3 was achieved by incubation of compound's ethanolic solution with 20% w/v cream suspended in water. Once well mixed by gently inverting the tube, the contents were allowed to incubate in the dark. […] Significant values were reported with a 95% confidence interval, i.e. p<0.05.
Incubation time was varied: 15, 30, 45, and 60 min. The effect of incubation time on the encapsulation of VD3 in bovine MFGs was assessed using a t-test with adjusted significance level using Bonferroni correction (p=0.008). These statistical analyses were carried out using Microsoft Excel 2010 (Microsoft Inc., Bellevue, WA, U.S.A.). All procedures were conducted with minimal exposure to light. The experiments were conducted in triplicates.
At the end of the incubation period with VD3, cream was separated by centrifuging the suspension at 3,000×g for 5 min Cream was skimmed off the top with particular care not to include any of the aqueous phase. Methanol was added at 50 mg/mL and vortexed vigorously for 1 min. The mixture was then centrifuged at 3,000×g for 30 min. Liquid phase was collected and absorbance was measured at 264 nm. Absorbance blank was prepared fresh during every encapsulation run by introducing ethanol to cream suspended in water. Absorbance of the blank was subtracted from test samples to remove the absorbance of solvent, lipids, and other MFGs components. All experiments were conducted in triplicates.
Fat content in cream was measured to calculate the loading yield. The fat was isolated using the same set of preparation steps detailed in Example 13 with the addition of the last centrifugation step to recover cream after at the end of the loading process. The total fat content was determined using a modified Folch method (Folch, Lees, & Sloane-Stanley, 1957) where an additional step of washing the chloroform/water interface with 1:1 water/methanol solution was added to remove milk serum components. The loading yield of VD3 in milk fat was calculated as follows: […]
where CE is the VD3 extracted from MFGs (μg), and MF is the mass of milk fat (g) in MFGs suspension. The extraction procedure was conducted in triplicates using independent milk samples.

[2] = Encapsulation of hydrophobic compounds into milk fat globules (loading capacity, encapsulation efficiency); assay type: physicochemical, bovine; settings: 10% v/v ethanol, 30 min
Protocol: Raw milk was procured from a local market and stored at 4° C. Milk was used for up to 4 days post purchase. MFGs were separated from raw milk using centrifugal separation following a modified version of the method by Gallier et al. (2010) (12). First, raw milk was diluted with Milli-Q water at 9:1 water to milk, and the solution was centrifuged at 3,000×g for 5 min using a fixed angle centrifuge rotor. Cream was then skimmed off the sides of the centrifuged tubes after discarding the aqueous phase. In order to remove more of the milk serum components, cream was reconstituted in water to reach 4% w/v, and subjected to another step of centrifugation at 3,000×g for 5 min Cream was collected as detailed prior, then reconstituted to 20% w/v in Milli-Q water. All separation steps were completed at room temperature.
Encapsulation of test compounds in MFGs was accomplished by mixing ethanolic stock solution of a compound with 20% w/v cream suspended in water. The mixture was gently inverted several times to mix, then allowed in incubate in the dark.
To test the effect of incubation temperature on the partitioning and encapsulation yield and efficiency, RA was added at 250 μM concentration and was allowed to incubate with MFGs for 30 min at 4, 22, and 40° C.
To quantify the amount of compound encapsulated in MFGs, cream was separated from ethanol-containing aqueous phase via centrifugal separation at 3,000 x g for 5 min. Cream was skimmed and added to methanol at 50 mg/mL and vortexed vigorously for 1 min, then centrifuged at 16,000×g for 10 min. Top layer of methanol was collected and absorbance was measured at appropriate wavelength for each compound. An absorbance blank was prepared following the same encapsulation and separation steps in the absence of compound. λmax in methanol (nm) for each compound is reported in Table 1.
Cream (20% w/v in Milli-Q water) that was separated following the steps in Example 2 was further separated via centrifugation at 3,000×g for 5 min. Fat content in cream was measured using a modified Folch method (13). An additional washing step was incorporated where the chloroform/water interface was washed with 1:1 water/methanol solution.

## C=C1CC[C@H](O)C/C1=C/C=C1\CCC[C@]2(C)[C@@H]([C@H](C)CCCC(C)C)CC[C@@H]12 [Cholecalciferol]
[1]; 50 μM
  EE %, 1% v/v ethanol: 20.81 ± 8.82%
  EE %, 10% v/v ethanol: 27.72 ± 7.94%
  LY, 1% v/v ethanol: 19.78 ± 8.38 μg of VD3 per gram of milk fat
  LY, 10% v/v ethanol: 26.34 ± 7.55 μg of VD3 per gram of milk fat
[1]; 100 μM
  EE %, 1% v/v ethanol: 18.45 ± 0.91%
  EE %, 10% v/v ethanol: 21.09 ± 1.10%
  LY, 1% v/v ethanol: 35.07 ± 1.73 μg of VD3 per gram of milk fat
  LY, 10% v/v ethanol: 40.09 ± 2.10 μg of VD3 per gram of milk fat
[1]; 150 μM
  EE %, 1% v/v ethanol: 15.43 ± 1.27%
  EE %, 10% v/v ethanol: 20.67 ± 1.97%
  LY, 1% v/v ethanol: 44.00 ± 3.63 μg of VD3 per gram of milk fat
  LY, 10% v/v ethanol: 58.93 ± 5.61^†¥ μg of VD3 per gram of milk fat
[1]; 200 μM
  EE %, 1% v/v ethanol: 12.31 ± 3.56%
  EE %, 10% v/v ethanol: 18.51 ± 1.52 %
  LY, 1% v/v ethanol: 46.78 ± 13.52 μg of VD3 per gram of milk fat
  LY, 10% v/v ethanol: 70.37 ± 5.79^†‡¥ μg of VD3 per gram of milk fat
[1]; 250 μM
  EE %, 1% v/v ethanol: 14.28 ± 1.89%
  EE %, 10% v/v ethanol: 16.85 ± 2.94 %
  LY, 1% v/v ethanol: 67.84 ± 9.00 μg of VD3 per gram of milk fat
  LY, 10% v/v ethanol: 80.07 ± 14.00 μg of VD3 per gram of milk fat
[1]; bovine MFGs
  VD3 loaded into MFGs (up to): Up to 80 μg/g milk fat
[1]; bovine MFGs, incubation up to 60 min vs 45 min, 10% v/v ethanol, 250 μM VD3
  reduction in the encapsulation yield with extended incubation: approx. 8%
[2]; 50 μM added compound, room temperature
  % Encapsulation efficiency: 68.60 ± 6.30%
[2]; 100 μM added compound, room temperature
  % Encapsulation efficiency: 69.58 ± 6.44%
[2]; 150 μM added compound, room temperature
  % Encapsulation efficiency: 67.62 ± 3.67%
[2]; 200 μM added compound, room temperature
  % Encapsulation efficiency: 63.59 ± 1.43%
[2]; 250 μM added compound, room temperature
  % Encapsulation efficiency: 49.84 ± 3.74 %
[2]; 500 μM added compound, room temperature
  % Encapsulation efficiency: 45.25 ± 3.00 %
[2]; 1000 μM added compound, room temperature
  % Encapsulation efficiency: 24.77 ± 0.84 %
[2]; 1500 μM added compound, room temperature
  % Encapsulation efficiency: 28.92 ± 3.43 %
[2]; 2000 μM added compound, room temperature
  % Encapsulation efficiency: 19.66 ± 1.05 %
[2]; 2500 μM added compound, room temperature
  % Encapsulation efficiency: 19.22 ± 2.88 %
[2]; maximal value over 50-2500 μM, room temperature
  maximal loading capacity (LC): 22.12 μg per gram of milk fat
[2]; over tested concentrations
  encapsulation efficiency (EE %), maximal/overall value: 69%
